Test system: α7 integrin promoter
Experiment: muscle cell-based assay: α7βgal+/− myoblasts/myotubes, LacZ reporter, β-galactosidase cleavage of FDG
Design: species or system mouse
Details: Myotubes; for Results in a α7+/− β-galactosidase assay, Myotubes, 0.5 uM: compound at 0.5 uM; for Results in a α7+/− β-galactosidase assay, Myotubes, 1 uM: compound at 1 uM; for Results in a α7+/− β-galactosidase assay, Myotubes, 5 uM: compound at 5 uM; for Results in a α7+/− β-galactosidase assay, Myotubes, 10 uM: compound at 10 uM; for Results in a α7+/− β-galactosidase assay, Myotubes, 20 uM: compound at 20 uM; for Results in a α7+/− β-galactosidase assay, Myotubes, 40 uM: compound at 40 uM
Summary of the method: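 Fluorescein generated from FDG by β-galactosidase reports α7 integrin promoter activity in differentiated myoblasts from α7+/− LacZ knock-in pups. Screening hits then went to dose-response, western blotting and a myostatin counterscreen.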

SMILES	Results in a α7+/− β-galactosidase assay, Myotubes, 0.5 uM	Results in a α7+/− β-galactosidase assay, Myotubes, 1 uM	Results in a α7+/− β-galactosidase assay, Myotubes, 5 uM	Results in a α7+/− β-galactosidase assay, Myotubes, 10 uM	Results in a α7+/− β-galactosidase assay, Myotubes, 20 uM	Results in a α7+/− β-galactosidase assay, Myotubes, 40 uM
CCC(=O)c1ccc(OCC(O)CN2CCOC(C)C2)cc1.O=C(O)C(=O)O (stereo not drawn) [drawing 403]	0.08149	0.03201	−0.09666	−0.1187	0.08332	0.1461
CC1CCN(C(CNS(=O)(=O)c2ccccc2)c2ccccc2)CC1 (stereo not drawn) [drawing 404]	0.1307	0.1946	−0.1201	−0.1176	−0.1296	−0.1429
COC(=O)c1ccc(/N=N/c2ccccc2)cc1 [drawing 405]	−0.111	0.1978	−0.1462	−0.2093	−0.1861	−0.2357
CN(CCC1CCCCO1)C(=O)CCc1nnc(CCCCc2ccccc2)o1 (stereo not drawn) [drawing 407]	0.03419	0.03033	−0.2337	−0.1125	−0.1283	−0.1202
c1ccc(-c2nn[nH]n2)nc1 [drawing 408]	−0.05084	−0.03177	−0.024	−0.07161	0.03157	0.04635
O=C(N/N=C/c1c[nH]c2ccccc12)c1cc(Cl)ccc1O [drawing 409]	−0.05672	−0.09286	0.2441	−0.1364	0.01214	−0.2587
O=C(O)C(Cc1ccc(O)cc1)N1C(=O)c2ccccc2C1=O (stereo not drawn) [drawing 411]	0.0905	0.1588	0.2927	−0.09211	0.2266	0.06733
CCN(CC)C(=O)c1sc2nc(-c3ccc(OC)cc3)cn2c1C [drawing 412]	0.08584	0.05066	0.1198	−0.03387	−0.01472	−0.1357
Cc1ccsc1-c1nnc(S)n1C1CCCCC1 [drawing 413]	0.2221	0.09759	0.1567	−0.1231	0.1272	−0.178
O=C(N[C@@H](Cc1c[nH]c2ccccc12)C(=O)O)C1CCN(S(=O)(=O)c2cccs2)CC1 [drawing 414]	0.08394	0.03833	0.03594	−0.09429	0.01148	−0.09282
COC(=O)Cn1c(=O)c2c(nc3n2CC(C)CN3Cc2ccccc2)n(C)c1=O (stereo not drawn) [drawing 415]	0.05467	0.04855	−0.1372	−0.2301	0.01742	−0.09631
CCOC(=O)c1cc(C(=O)OCC)c(SCc2ccccc2)nc1O [drawing 416]	−0.05564	−0.06589	0.2144	−0.09676	−0.147	−0.37
Oc1nc2ccccc2nc1-c1c[nH]c2ccccc12 [drawing 417]	−0.06072	−0.2204	−0.08742	0.05064	−0.4132	−0.2613
O=C(Nc1cc(-c2nc3ccccc3s2)ccc1Cl)c1ccc2c(c1)OCO2 [drawing 418]	0.01013	−0.09877	0.05089	0.3348	−0.3294	−0.3941
Cn1c(-c2ccccc2)cc2ccccc21 [drawing 419]	−0.1946	−0.1516	0.03646	0.2623	−0.2495	−0.1512
COc1ccc(C(=O)/C=C2\C(=O)Nc3ccccc32)cc1OC [drawing 420]	−0.03323	−0.07984	0.02829	0.263	−0.3062	−0.184
CC(C(=O)Nc1ccc(C#N)cc1)N(C)CC(=O)Nc1cccc(F)c1 (stereo not drawn) [drawing 421]	0.03075	−0.03964	−0.1345	0.2992	−0.138	0.2085
CC(C(=O)Nc1ccc(C#N)cc1)N(C)CC(=O)Nc1cccc(F)c1 (stereo not drawn) [drawing 422]	−0.07067	−0.1638	0.1526	0.4825	−0.1663	0.2317
CC1Cc2ccccc2N1C(=O)CSc1nnc(N)s1 (stereo not drawn) [drawing 423]	−0.03474	−0.1188	−0.01338	0.3723	−0.1603	0.2399
CC(C)(C)NC(=O)NC(=O)CN1CCN(Cc2ccccc2)CC1 [drawing 424]	0.003071	−0.04272	0.04658	0.4408	−0.2165	0.07828
COc1cc(C=O)ccc1OCC(=O)Nc1ccc2c(c1)OCO2 [drawing 425]	−0.1155	−0.1633	0.1998	0.4511	−0.2886	0.003215
Cc1ccccc1NC(=O)c1ccc2c(O)c(Sc3ccccc3)c(=O)[nH]c2c1 [drawing 426]	−0.06746	−0.07688	−0.09733	0.01498	−0.07909	−0.1428
Oc1nc(SCc2ccc(Cl)cc2)nc2ccsc12 [drawing 427]	0.03102	−0.01338	−0.1454	0.05532	−0.03447	−0.1688
CCn1c(=O)c2cc(C(=O)N(C)c3cc(C)ccc3OC)sc2c2ccccc21 [drawing 428]	−0.1274	−0.01854	−0.1965	−0.1001	−0.31	−0.8047
CCOC(=O)C1=C(NC(=O)c2ccc(OC)c(S(=O)(=O)N3CCCCC3C)c2)Nc2ccccc2N=C1CC (stereo not drawn) [drawing 429]	−0.08852	0.05126	−0.2482	−0.1853	−0.1051	−0.1944

From patent US10028992B2, “Methods of treating muscular dystrophy” (BOARD OF REGENTS OF THE NEVADA SYSTEM OF HIGHER EDUCATION …, priority 2012, dated 2018)
